Data on twelve molecules can be found in ChEMBL document CHEMBL6177961, “Structure-Based Analysis of Semisynthetic Anti-TB Rufomycin Analogues” (J Nat Prod, 2025).

For one data set, the system named is Mycobacterium avium. The data set is described as follows: Antimycobacterial activity against Mycobacterium avium assessed as reduction in bacterial growth. Format: functional.
Data set [1] can be described thus: Binding affinity to full length Mycobacterium tuberculosis ClpC1 assessed as dissociation constant by SPR analysis. Background: In SPR one partner is held on a chip, and binding of the other changes the refractive index at the surface.
A short description of data set [2]: Cytotoxicity against African green monkey Vero cells. Type of data set: toxicity, cell-based. As to conditions: African green monkey (Chlorocebus sabaeus).
A short description of data set [3]: Selectivity index, ratio of IC50 for cytotoxicity against African green monkey Vero cells to MIC for antimycobacterial activity against Mycobacterium tuberculosis H37Rv ATCC 27294. Type of data set: toxicity, cell-based. The note with it: read-out: Selectivity Index.
Data set [4] can be described thus: Binding affinity to N-terminal Mycobacterium tuberculosis ClpC1 assessed as dissociation constant by SPR analysis.
Data set [5] has as its system Mycobacteroides abscessus. The data set is described as follows: Antimycobacterial activity against Mycobacterium abscessus ATCC 19977 assessed as reduction in bacterial growth by microplate Alamar blue assay. Type of data set: functional. (In general: The colour change of resazurin is a common sign of viable cells or microbes.)
In data set [6] the test system is Mycobacterium tuberculosis. The data set is described as follows: Antimycobacterial activity against Mycobacterium tuberculosis H37Rv ATCC 27294 assessed as reduction in bacterial growth by microplate alamar blue assay. Type of data set: functional.

≈ marks a conversion by molar mass, not a printed value.

For the molecule `C/C=C/C[C@@H]1NC(=O)[C@H](CC(C)C)N2C=C(C)C[C@@H](C2=O)N(C)C(=O)[C@H](C)NC(=O)[C@H](Cc2ccc(O)c([N+](=O)[O-])c2)NC(=O)[C@H](CC(C)C)N(C)C(=O)[C@H](Cc2cn(C(C)(C)[C@H]3CO3)c3ccccc23)NC1=O`, the MIC came out at 4.1 µM (≈ 4.2 µg/mL) in the data set on Mycobacterium avium, 0.58 µM (≈ 0.594 µg/mL) in data set [5] and 0.003 µM (≈ 0.00307 µg/mL) in data set [6]. Further, the figures for the Kd in data set [1] and in data set [4] were 60 nM and 50 nM, respectively. In data set [2], this molecule returned an IC50 above 100000 nM. The selectivity ratio in data set [3] was above 33000.
For the molecule `C/C=C/C[C@@H]1NC(=O)[C@H](CC(C)C)N2C(=O)[C@H](CC(C)[C@H]2OC)N(C)C(=O)[C@H](C)NC(=O)[C@H](Cc2ccc(OC(C)=O)c([N+](=O)[O-])c2)NC(=O)[C@H](CC(C)C)N(C)C(=O)[C@H](Cc2cn(C(C)(C)[C@H]3CO3)c3ccccc23)NC1=O` (some centres undefined), the MIC turned out to be 0.14 µM (≈ 0.154 µg/mL) in the data set with Mycobacterium avium, 0.13 µM (≈ 0.143 µg/mL) in data set [5] and 0.001 µM (≈ 0.0011 µg/mL) in data set [6]. The dissociation constant Kd in data set [1] is 44 nM; in data set [4], 40 nM. The molecule further yielded an IC50 in data set [2] above 100000 nM. In addition, in data set [3], the selectivity ratio was above 71000.
On to `C/C=C/C[C@@H]1NC(=O)[C@H](CC(C)C)N2C=C(C)C[C@@H](C2=O)N(C)C(=O)[C@H](C)NC(=O)[C@H](Cc2ccc3ocnc3c2)NC(=O)[C@H](CC(C)C)N(C)C(=O)[C@H](Cc2cn(C(C)(C)[C@H](O)CCl)c3ccccc23)NC1=O`, for which the MIC with Mycobacterium avium is above 10 µM; in data set [5] it was 2.4 µM (≈ 2.5 µg/mL); in data set [6] it was 0.12 µM (≈ 0.125 µg/mL). Also, the Kd in data set [1] amounted to 430 nM; in data set [4], 300 nM. In data set [2], this molecule returned a 50% inhibitory concentration (IC50) above 100000 nM. In addition, the selectivity ratio in data set [3] was above 830.
Turning to `C/C=C/C[C@@H]1NC(=O)[C@H](CC(C)C)N2C=C(C)C[C@@H](C2=O)N(C)C(=O)[C@H](C)NC(=O)[C@H](Cc2ccc3oc(=O)[nH]c3c2)NC(=O)[C@H](CC(C)C)N(C)C(=O)[C@H](Cc2cn(C(C)(C)[C@H](O)CCl)c3ccccc23)NC1=O`, the MIC was above 10 µM in the data set on Mycobacterium avium, 2.3 µM (≈ 2.43 µg/mL) in data set [5] and 0.12 µM (≈ 0.127 µg/mL) in data set [6]. The values for the Kd in data set [1] and in data set [4] were 510 nM and 430 nM, respectively. For the same molecule, the IC50 in data set [2] was above 100000 nM. Also, the selectivity ratio in data set [3] was above 830.
As to `C/C=C/C[C@@H]1NC(=O)[C@H](CC(C)C)N2C(=O)[C@H](C[C@@H](C)[C@H]2OCC)N(C)C(=O)[C@H](C)NC(=O)[C@H](Cc2ccc(O)c([N+](=O)[O-])c2)NC(=O)[C@H](CC(C)C)N(C)C(=O)[C@H](Cc2cn(C(C)(C)[C@H](O)CCl)c3ccccc23)NC1=O`, the MIC is above 10 µM with Mycobacterium avium, 1.1 µM (≈ 1.22 µg/mL) in data set [5] and 0.24 µM (≈ 0.266 µg/mL) in data set [6]. Besides, the Kd in data set [1] was 140 nM; in data set [4], 120 nM. The same molecule registered an IC50 in data set [2] above 10000 nM. Also, in data set [3], the selectivity ratio was above 42.
In the case of `C/C=C/C[C@@H]1NC(=O)[C@H](CC(C)C)N2C=C(C)C[C@@H](C2=O)N(C)C(=O)[C@H](C)NC(=O)[C@H](Cc2ccc(O)c([N+](=O)[O-])c2)NC(=O)[C@H](CC(C)C)N(C)C(=O)[C@H](Cc2cn(C(C)(C)[C@H](O)CBr)c3ccccc23)NC1=O`, the minimal inhibitory concentration (MIC) was 1.1 µM (≈ 1.22 µg/mL) in the data set on Mycobacterium avium, 0.57 µM (≈ 0.63 µg/mL) in data set [5] and 0.003 µM (≈ 0.00332 µg/mL) in data set [6]. The Kd amounted to 350 nM in data set [1] and 260 nM in data set [4]. In data set [2], this molecule yielded an IC50 above 100000 nM. Also, the selectivity ratio in data set [3] was above 32000.
With `C/C=C/C[C@@H]1NC(=O)[C@H](CC(C)C)N2C=C(C)C[C@@H](C2=O)N(C)C(=O)[C@H](C)NC(=O)[C@H](Cc2ccc(OC(=O)c3ccccc3)c([N+](=O)[O-])c2)NC(=O)[C@H](CC(C)C)N(C)C(=O)[C@H](Cc2cn(C(C)(C)[C@@H](CCl)OC(=O)c3ccccc3)c3ccccc23)NC1=O`, the minimal inhibitory concentration (MIC) was above 10 µM in the data set with Mycobacterium avium, above 10 µM in data set [5] and 0.45 µM (≈ 0.571 µg/mL) in data set [6]. Besides, the dissociation constant (Kd) was determined as 1100 nM in data set [1] and 1400 nM in data set [4]. The molecule further had a half-maximal inhibitory concentration (IC50) in data set [2] above 100000 nM. In data set [3], the selectivity ratio is above 220.
On to `C/C=C/C[C@@H]1NC(=O)[C@H](CC(C)C)N2C(=O)[C@H](C[C@@H](C)[C@@H]2OCCCC)N(C)C(=O)[C@H](C)NC(=O)[C@H](Cc2ccc(O)c([N+](=O)[O-])c2)NC(=O)[C@H](CC(C)C)N(C)C(=O)[C@H](Cc2cn(C(C)(C)[C@H](O)CCl)c3ccccc23)NC1=O`, for which the MIC is above 10 µM with Mycobacterium avium, 9.4 µM (≈ 10.7 µg/mL) in data set [5] and 0.77 µM (≈ 0.874 µg/mL) in data set [6]. In addition, the equilibrium dissociation constant (Kd) in data set [1] was 720 nM; in data set [4], 600 nM. This molecule showed a 50% inhibitory concentration (IC50) in data set [2] of 95000 nM. In data set [3], the selectivity ratio was found to be 120.
Regarding `C/C=C/C[C@@H]1NC(=O)[C@H](CC(C)C)N2C(=O)[C@H](CC(C)[C@H]2O)N(C)C(=O)[C@H](C)NC(=O)[C@H](Cc2ccc(OC)c([N+](=O)[O-])c2)NC(=O)[C@H](CC(C)C)N(C)C(=O)[C@H](Cc2cn(C(C)(C)[C@H]3CO3)c3ccccc23)N(C)C1=O` (some centres undefined), the minimal inhibitory concentration (MIC) worked out at 9 µM (≈ 9.63 µg/mL) in the data set with Mycobacterium avium, 0.58 µM (≈ 0.621 µg/mL) in data set [5] and 0.054 µM (≈ 0.0578 µg/mL) in data set [6]. The Kd stood at 130 nM in data set [1] and 120 nM in data set [4]. In data set [2], this molecule registered a 50% inhibitory concentration (IC50) above 100000 nM. For the same molecule, in data set [3], the selectivity ratio was above 1900.
In the case of `C/C=C/C[C@@H]1NC(=O)[C@H](CC(C)C)N2C(=O)[C@H](CC(C)[C@H]2OC)N(C)C(=O)[C@H](C)NC(=O)[C@H](Cc2ccc(OC)c([N+](=O)[O-])c2)NC(=O)[C@H](CC(C)C)N(C)C(=O)[C@H](Cc2cn(C(C)(C)[C@H](O)COC)c3ccccc23)NC1=O` (some centres undefined), the minimum inhibitory concentration (MIC) in the data set with Mycobacterium avium worked out at 4.5 µM (≈ 4.96 µg/mL); in data set [5], 0.52 µM (≈ 0.573 µg/mL); in data set [6], 0.023 µM (≈ 0.0254 µg/mL). The Kd was 40 nM in data set [1] and 37 nM in data set [4]. This molecule also came in with an IC50 in data set [2] of 83000 nM. Also, the selectivity ratio in data set [3] amounted to 3600.
Turning to `C/C=C/C[C@@H]1NC(=O)[C@H](CC(C)C)N2C(=O)[C@H](CC(C)[C@H]2OC)N(C)C(=O)[C@H](C)NC(=O)[C@H](Cc2ccc(OC(C)=O)c([N+](=O)[O-])c2)NC(=O)[C@H](CC(C)C)N(C)C(=O)[C@H](Cc2cn(C(C)(C)[C@H](O)CCl)c3ccccc23)NC1=O` (some centres undefined), the values for the minimum inhibitory concentration (MIC) (in the data set with Mycobacterium avium; in data set [5]; in data set [6]) were 0.21 µM (≈ 0.238 µg/mL), 0.21 µM (≈ 0.238 µg/mL) and 0.005 µM (≈ 0.00567 µg/mL), respectively. The figures for the Kd in data set [1] and in data set [4] were 42 nM and 38 nM, respectively. The molecule also returned an IC50 in data set [2] above 100000 nM. Also, the selectivity ratio in data set [3] was above 20000.
As for `C/C=C/C[C@@H]1NC(=O)[C@H](CC(C)C)N2C=C(C)C[C@@H](C2=O)N(C)C(=O)[C@H](C)NC(=O)[C@H](Cc2ccc(O)c(NC(=O)CCl)c2)NC(=O)[C@H](CC(C)C)N(C)C(=O)[C@H](Cc2cn(C(C)(C)[C@H](O)CCl)c3ccccc23)NC1=O`, the MIC was above 10 µM in the data set with Mycobacterium avium, 2.2 µM (≈ 2.44 µg/mL) in data set [5] and 0.098 µM (≈ 0.109 µg/mL) in data set [6]. Also, the figures for the Kd in data set [1] and in data set [4] were 310 nM and 220 nM, respectively. The IC50 in data set [2] is above 100000 nM. For the same molecule, the selectivity ratio in data set [3] is above 1000.

In general, MIC refers to the lowest concentration that inhibits growth of the organism. Broadly, the Kd is the equilibrium constant for the complex coming apart. By IC50 is commonly meant the concentration needed to halve the response being measured.
